Source: paper PMC8126888 (RSC Medicinal Chemistry, 2020)
Read-outs that look alike come from different tables or passages of the source.

What was measured:
[1] = tested on: Trypanosoma cruzi, Tulahuen CL2, beta-galactosidase strain; test: microbe, parasite or virus in culture; conditions: MRC5, read-out: T. cruzi Tulahuen C4 (LacZ) IC50 (uM)
in vitro [2] = conditions: human
in vitro [3] = conditions: human, HepG2 cells
[4] = tested on: Leishmania infantum MHOM/MA(BE)/67/ITMAP263 intracellular amastigotes; test: microbe, parasite or virus in culture; conditions: Macrophage, in Mus musculus
in vitro [5] = conditions: mouse, microsomes; for microsomal CLint at 0.5 μM: pH 7.4, MLM CLint (uL/min/mg), mouse liver microsomes; for microsomal CLint at 0.5 h, 0.5 µM: intrinsic in vitro clearance, liver microsomes
in vitro [6] = conditions: human, HFF-1 cells
[7] = tested on: Leishmania infantum (MHOM/MA/67/ITMAP-263) intracellular amastigotes in THP-1; test: microbe, parasite or virus in culture
in vitro [8] = conditions: human; for CC50 at 120 h: THP-1 cells differentiated with PMA; for IC50 at 120 h: PMA-differentiated THP-1 cells
in vitro [9] = conditions: PAMPA
[10] = tested on: primary peritoneal mouse macrophages (PMM); test: cells; conditions: Macrophage
in vitro [11] = conditions: human, microsomes
physchem = conditions: HPLC, Ascentis Express RP Amide column
[12] = tested on: Leishmania infantum MHOM/MA(BE)/67/ITMAP263 intracellular amastigotes; conditions: for potency against L. inf. in words: intracellular amastigotes in PMM
[13] = read-out: L. Inf. pIC50, from L. infantum intracellular amastigote IC50 (converted)
[14] = read-out: L. infantum MHOM/MA(BE)/67/ITMAP263 intracellular amastigotes IC50 (uM), intracellular amastigotes
[15] = THP-1, read-out: L. infantum MHOM/MA/67/ITMAP263 intracellular amastigotes THP-1 cells IC50 (uM)
[16] = pH 7.4, HLM CLint (uL/min/mg), human liver microsomes
[17] = read-out: L. inf. pIC50, intracellular amastigotes in PMM (converted), geometric mean of a minimum of two experiments ± standard error
[18] = pH 7.4, Microsome Clint,u Mouse, Table 2
[19] = THP-1, 120 h, read-out: Intracellular activity pIC50 L. inf. in THP-1 (converted)
[20] = read-out: PMM pIC50 (converted)
[21] = pH 7.4, Microsome Clint,u Human, Table 2, intrinsic in vitro clearance, liver microsomes
[22] = pH 7.4, elog D, HPLC measured log D, pH 7.4
[23] = pH 7.4, Microsome Clint Human, intrinsic in vitro clearance, liver microsomes
[24] = reference drug in the intracellular Leishmania amastigote assay

| SMILES | IC50 [1] [µM] | CC50 at 3 days (in vitro [2]) [µM] | CC50 (in vitro [3]) [µM] | IC50 [4, 13] [µM] | IC50 [4, 14] [µM] | microsomal CLint at 0.5 μM (in vitro [5]) [µL/min/mg] | CC50 (in vitro [6]) [µM] | IC50 [7, 15] [µM] | CC50 at 120 h (in vitro [8]) [µM] | Papp (in vitro [9]) [×10⁻⁶ cm/s] | IC50 ([10]; read-out: PMM IC50 (uM)) [µM] | microsomal CLint at 0.5 μM (in vitro [11]; [16]) [µL/min/mg] | chromatographic logD (physchem; pH 7.4, eLogD, experimental) | IC50 [4, 17] [µM] | IC50 [7, 19] [µM] | IC50 at 120 h (in vitro [8]) [µM] | IC50 [10, 20] [µM] | further results |
| --- | --- | --- | --- | --- | --- | --- | --- | --- | --- | --- | --- | --- | --- | --- | --- | --- | --- | --- |
| COc1ccc(C#N)cc1S(=O)(=O)N(Cc1ccccc1)Cc1cnc(C(F)(F)F)nc1 [DNDI0003425527] | 28.4 | > 64 | > 64 | 3.89 | 3.9 | 100 | > 64 | 61.1 | > 64 | 29.4 | > 64 | 80 | – | – | – | – | – | – |
| CCN(Cc1ccc(F)cc1)S(=O)(=O)c1cc(C(=O)N2CCOCC2)ccc1OC [DNDI0003392124] | 36 | > 64 | > 64 | 20.9 | 20.7 | 116 | > 64 | > 64 | > 64 | 15.5 | > 64 | 142 | 2.7 | – | – | – | – | – |
| COc1ccc(S(C)(=O)=O)cc1S(=O)(=O)N(Cc1ccccc1)CC(C)(C)C [DNDI0003425524] | 28.7 | > 64 | > 64 | 2.69 | 2.69 | 1100 | 57.2 | 47.7 | > 64 | 14.1 | > 64 | 1050 | 3.6 | – | – | – | – | – |
| COCCOCN(Cc1ccccc1)S(=O)(=O)c1cc(OC)ccc1OC [DNDI0003425514] | > 64 | > 64 | > 64 | 6.17 | 6.11 | – | > 64 | > 64 | > 64 | 12.8 | > 64 | – | 3.4 | – | – | – | – | – |
| COc1ccc(C(=O)N2CCOCC2)cc1S(=O)(=O)N(Cc1ccc(C(F)(F)F)nc1)CC(C)(C)C [Compound 48] | – | – | – | – | – | – | – | – | – | – | – | – | – | 45.7 | > 64.6 | > 64.6 | > 64.6 | microsomal CLint at 0.5 h, 0.5 µM (in vitro [5]; [18]): 379 µL/min/mg; potency against L. inf. in words [12]: inactive; microsomal CLint at 0.5 h, 0.5 µM (in vitro [11]; [21]): 143 µL/min/mg |
| Nc1cc(Cl)c(S(N)(=O)=O)cc1S(=O)(=O)N(Cc1ccccc1)Cc1ccccc1 [DNDI0003392145] | 17.7 | 43.4 | > 64 | 35.5 | 35.3 | – | > 64 | 31.2 | 60.6 | 3.37 | 50.8 | 253 | 3.4 | – | – | – | – | – |
| COc1ccc(C(=O)N2CCOCC2)cc1S(=O)(=O)N(Cc1ccc(C(F)(F)F)nc1)CC(C)(C)C [DNDI0003407906] | 35.6 | > 64 | > 64 | 45.7 | 45.2 | 262 | > 64 | > 64 | > 64 | 15.7 | > 64 | 127 | – | – | – | – | – | – |
| COCCOCN1CNc2cc(OC)c(S(=O)(=O)N(Cc3ccccc3)Cc3ccccc3)cc2S1(=O)=O [DNDI0003425511] | 61.7 | > 64 | 52 | 0.661 | 0.65 | 976 | > 64 | 14.8 | 40.2 | 0.92 | > 64 | 460 | – | – | – | – | – | – |
| O=S1(=O)NCNc2cc(Cl)c(S(=O)(=O)N(Cc3ccccc3)Cc3ccccc3)cc21 [DNDI0003425512] | 9.14 | 25 | > 64 | 1.29 | 1.28 | – | 29.5 | 24.9 | 52.4 | 0.04 | 32 | 63 | 4.2 | – | – | – | – | – |
| C[C@@H]1[C@H](O)[C@@H](C)/C=C/C=C/C=C/C=C/C=C/C=C/C=C/[C@H](O[C@@H]2O[C@H](C)[C@@H](O)[C@H](N)[C@@H]2O)C[C@@H]2O[C@](O)(C[C@@H](O)C[C@@H](O)[C@H](O)CC[C@@H](O)C[C@@H](O)CC(=O)O[C@H]1C)C[C@H](O)[C@H]2C(=O)O [Amphotericin B, reference compound] | – | – | – | – | – | – | – | – | – | – | – | – | – | – | 1.95 | – | – | – |
| COc1ccc(S(C)(=O)=O)cc1S(=O)(=O)N(Cc1ccc(F)cc1)Cc1ccc(F)cc1 [Compound 26] | – | – | – | – | – | – | – | – | – | – | – | – | – | 1.29 | 5.89 | > 64.6 | > 64.6 | chromatographic logD (physchem; [22]): 3.9; microsomal CLint at 0.5 μM (in vitro [11]; [23]): 296 µL/min/mg |
| CCCCCCCCCCCCCCCCOP(=O)([O-])OCC[N+](C)(C)C [Miltefosine, reference compound] | – | – | – | – | – | – | – | – | – | – | – | – | – | 8.71 | 1.95 | – | – | IC50 [4, 24]: 5 to 10 µM; IC50 [12, 24]: ~5 µM |
| COc1ccc(C(=O)N2CCOCC2)cc1S(=O)(=O)N(Cc1ccccc1)CC(C)(C)C [Compound 45] | – | – | – | – | – | – | – | – | – | – | – | – | – | 1 | 27.5 | > 64.6 | > 64.6 | microsomal CLint at 0.5 h, 0.5 µM (in vitro [5]; [18]): 2580 µL/min/mg; chromatographic logD (physchem; [22]): 3.8; microsomal CLint at 0.5 h, 0.5 µM (in vitro [11]; [21]): 1600 µL/min/mg |
| COc1ccc(C#N)cc1S(=O)(=O)N(Cc1ccccc1)Cc1cnc(C(F)(F)F)nc1 [Compound 49] | – | – | – | – | – | – | – | – | – | – | – | – | – | 3.89 | 61.7 | > 64.6 | > 64.6 | chromatographic logD (physchem; [22]): 3.8; microsomal CLint at 0.5 μM (in vitro [11]; [21]): 100 µL/min/mg |
| COCCOCN1CNc2cc(OC)c(S(=O)(=O)N(Cc3ccccc3)Cc3ccccc3)cc2S1(=O)=O [Compound 29] | – | – | – | – | – | – | – | – | – | – | – | – | – | 0.661 | 14.8 | 39.8 | > 64.6 | microsomal CLint at 0.5 h, 0.5 µM (in vitro [5]; pH 7.4, Microsome Clint Mouse): 1370 µL/min/mg; potency against L. inf. in words [12]: sub-micromolar potency; chromatographic logD (physchem; [22]): 4; microsomal CLint at 0.5 h, 0.5 µM (in vitro [11]; [23]): 518 µL/min/mg |
| COc1ccc(C(=O)N2CCOCC2)cc1S(=O)(=O)N(Cc1ccccc1)CC(C)(C)C [DNDI0003407876] | 16.7 | > 64 | > 64 | 1 | 1 | 858 | > 64 | 27.5 | > 64 | 21.7 | > 64 | 1140 | – | – | – | – | – | – |
